Results reported in PMC8943889, “Synthetic studies with the brevicidine and laterocidine lipopeptide antibiotics including analogues with enhanced properties and in vivo efficacy” (Chemical Science, 2022).
≈ marks a conversion by molar mass, not a printed value. Where two headings read alike, the source gives them in different places. Positions of bridges follow the written chain, without caps; N, C: chain ends. Non-standard residues stand in square brackets, D forms with d. Residues, ends and D or L forms follow the SMILES beside them. ξ: configuration not given here. *: point of attachment. Octanoyl(7-Me) = CC(C)CCCCCC(=O)*; Hexanoyl(4ξ-Me) = CCC(C)CCC(=O)*; dOrn = NCCC[C@@H](N)C(=O)O; Orn = NCCC[C@H](N)C(=O)O; Dap = NC[C@H](N)C(=O)O

Assays:
Format in all cases: cell-based
[1] = system: P. aeruginosa M-120
Protocol: (§1) Minimum inhibitory concentrations (MICs) were determined by broth microdilution according to CLSI guidelines in triplicate. Blood agar plates were inoculated with glycerol stocks of E. coli ATCC 25922, E. coli MCR-1 (clinical isolate from Utrecht Medical Centre, NL), E. coli EQAS MCR-2 (clinical isolate from Wageningen University and Research, NL), K. pneumoniae ATCC 11228, K. pneumoniae ATCC 13883, K. pneumonia 2048 (clnical isolate from Vrije Universiteit Amsterdam Medical Centre, NL), K. pneumonia JS-123 (clinical isolate from Utrecht Medical […]
(§2) (clinical isolate from Rijksinstituut voor Volksgezondheid en Milieu, NL), A. baumannii MDR (clinical isolate from Vrije Universiteit Amsterdam Medical Centre, NL), P. aeruginosa ATCC 27853, P. aeruginosa PAO1, P. aeruginosa NRZ-03961 (Reference strain from Das Nationale Referenzzentrum für gramnegative Krankenhauserreger, DE), P. aeruginosa M-120 (clinical isolate from Leiden University Medical Centre, NL) and S. aureus USA300 (clinical isolate from Texas Children's Hospital, USA). E. coli 25922 MCR1 was grown on LB agar supplemented with kanamycin. The inoculated agar plates were then incubated for 16 h at 37°C . Individually grown colonies were subsequently used to inoculate 3 mL aliquots of TSB that were then incubated at 37°C with shaking at 220 rpm. In parallel, the lipopeptide antibiotics to be assessed were serially diluted with Mueller-Hinton broth (MHB) in polypropylene 96-well plates (50 µL in each well).
(§3) Once the OD600 of the bacterial suspensions reached 0.5, the bacteria were diluted with MHB (final concentration 2 × 10^5 CFU mL−1) and added to the microplates containing the test compounds (50 µL to each well, final volume: 100 µL). The well-plates were sealed with an adhesive membrane and after 16 h of incubation at 37°C with shaking at 220 rpm the wells were visually inspected for bacterial growth. MIC values reported are based on three technical replicates and defined as the lowest concentration of the compound that prevented visible growth of bacteria. […]

[2] = system: A. baumannii ATCC 17978
Protocol: as §1, §2, §3

[3] = system: E. coli ATCC 25922
Protocol: as §1, §2, §3

[4] = system: E. coli EQAS MCR-2; conditions: Ec EQAS MCR-2; broth microdilution (CLSI), MHB, 16 h 37 °C, three technical replicates
Protocol: as §1, §2, §3

[5] = system: P. aeruginosa ATCC 27853
Protocol: as §1, §2, §3

[6] = system: E. coli ATCC 25922 MCR-1; conditions: Ec ATCC 25922 MCR-1; broth microdilution (CLSI), MHB, 16 h 37 °C, three technical replicates
Protocol: as §1, §2, §3

[7] = system: A. baumannii 2018-006
Protocol: as §1, §2, §3

[8] = system: K. pneumoniae 2048
Protocol: as §1, §2, §3

[9] = system: P. aeruginosa NRZ-03961
Protocol: as §1, §2, §3

[10] = system: K. pneumoniae ATCC 11228
Protocol: as §1, §2, §3

[11] = system: A. baumannii MDR; conditions: Ab MDR; broth microdilution (CLSI), MHB, 16 h 37 °C, three technical replicates
Protocol: as §1, §2, §3

[12] = system: K. pneumoniae ATCC 13883
Protocol: as §1, §2, §3

[13] = system: S. aureus USA300
Protocol: as §1, §2, §3

[14] = system: K. pneumoniae JS-123
Protocol: as §1, §2, §3

[15] = system: P. aeruginosa PAO1
Protocol: as §1, §2, §3

[16] = system: A. baumannii ATCC 17961
Protocol: as §1, §2, §3

[17] = system: E. coli MCR-1 (clinical isolate); conditions: Ec MCR-1; broth microdilution (CLSI), MHB, 16 h 37 °C, three technical replicates
Protocol: as §1, §2, §3

[18] = Pa M-120, broth microdilution (CLSI), MHB, 16 h 37 °C, three technical replicates
[19] = Ab ATCC 17978, broth microdilution (CLSI), MHB, 16 h 37 °C, three technical replicates
[20] = Ec ATCC 25922, broth microdilution (CLSI), MHB, 2 × 10^5 CFU/mL, 16 h 37 °C, visual read-out, three technical replicates
[21] = Pa ATCC 27853, broth microdilution (CLSI), MHB, 16 h 37 °C, three technical replicates
[22] = Ab 2018-006, broth microdilution (CLSI), MHB, 16 h 37 °C, three technical replicates
[23] = Kp 2048, broth microdilution (CLSI), MHB, 16 h 37 °C, three technical replicates
[24] = Pa NRZ-03961, broth microdilution (CLSI), MHB, 16 h 37 °C, three technical replicates
[25] = Kp ATCC 11228, broth microdilution (CLSI), MHB, 16 h 37 °C, three technical replicates
[26] = Kp ATCC 13883, broth microdilution (CLSI), MHB, 16 h 37 °C, three technical replicates
[27] = Sa USA300, broth microdilution (CLSI), MHB, 16 h 37 °C, three technical replicates
[28] = Kp JS-123, broth microdilution (CLSI), MHB, 16 h 37 °C, three technical replicates
[29] = Pa PAO1, broth microdilution (CLSI), MHB, 16 h 37 °C, three technical replicates
[30] = Ab ATCC 17961, broth microdilution (CLSI), MHB, 16 h 37 °C, three technical replicates

Row | Molecule | MIC ([1]; M-120, 16 h) [µg/mL] | MIC ([2]; ATCC 17978, 16 h) [µg/mL] | MIC ([3]; ATCC 25922, 16 h) [µg/mL] | MIC [4] [µg/mL] | MIC ([5]; ATCC 27853, 16 h) [µg/mL] | MIC [6] [µg/mL] | MIC ([7]; 2018-006, 16 h) [µg/mL] | MIC ([8]; 2048, 16 h) [µg/mL] | MIC ([9]; NRZ-03961, 16 h) [µg/mL] | MIC ([10]; ATCC 11228, 16 h) [µg/mL] | MIC [11] [µg/mL] | MIC ([12]; ATCC 13883, 16 h) [µg/mL] | MIC ([13]; USA300, 16 h) [µg/mL] | MIC ([14]; JS-123, 16 h) [µg/mL] | MIC ([15]; PAO1, 16 h) [µg/mL] | MIC ([16]; ATCC 17961, 16 h) [µg/mL] | MIC [1, 18] [µg/mL] | MIC [2, 19] [µg/mL] | MIC [3, 20] [µg/mL] | MIC [17] [µg/mL] | also measured
1 | CCC(C)CCC(=O)N[C@H](CC(N)=O)C(=O)N[C@H](Cc1ccc(O)cc1)C(=O)N[C@H](Cc1c[nH]c2ccccc12)C(=O)N[C@H](CCCN)C(=O)N[C@@H](CCCN)C(=O)NCC(=O)N[C@H](CCCN)C(=O)N[C@@H](Cc1c[nH]c2ccccc12)C(=O)N[C@@H]1C(=O)N[C@@H]([C@@H](C)CC)C(=O)NCC(=O)N[C@@H](CO)C(=O)O[C@@H]1C (stereo partly shown) [Brev (1), brevicidine] | 2 to 4 | 4 (≈ 2.63 µM) | 1 to 2 | 2 (≈ 1.32 µM) | ≤0.5 | 2 (≈ 1.32 µM) | 4 (≈ 2.63 µM) | 1 to 2 | 2 (≈ 1.32 µM) | 1 to 2 | 4 (≈ 2.63 µM) | 1 (≈ 0.658 µM) | 64 (≈ 42.1 µM) | 1 (≈ 0.658 µM) | 2 (≈ 1.32 µM) | 2 to 4 | – | – | – | – | –
2 | CCC(C)CCC(=O)N[C@H](CC(N)=O)C(=O)N[C@H](Cc1ccc(O)cc1)C(=O)N[C@H](Cc1c[nH]c2ccccc12)C(=O)N[C@H](CCCN)C(=O)N[C@@H](CCCN)C(=O)NCC(=O)N[C@H](CCCN)C(=O)N[C@@H](Cc1c[nH]c2ccccc12)C(=O)N[C@H]1CNC(=O)[C@H](CO)NC(=O)CNC(=O)[C@H]([C@@H](C)CC)NC1=O (stereo partly shown) [Dap9-Brev (5), Dap9-Brevicidamide] ({Hexanoyl(4ξ-Me)}-[dN][dY][dW][dOrn][Orn]G[dOrn]W[Dap]IGS; lactam 9-C) | – | – | – | 8 to 16 | – | 16 (≈ 10.6 µM) | – | – | – | – | 8 (≈ 5.32 µM) | – | – | – | – | – | 16 (≈ 10.6 µM) | 16 (≈ 10.6 µM) | 8 to 16 | 8 to 16 | MIC [5, 21]: 8 µg/mL (≈ 5.32 µM); MIC [7, 22]: 8 µg/mL (≈ 5.32 µM); MIC [8, 23]: 16 to 32 µg/mL; MIC [9, 24]: 16 to 32 µg/mL; MIC [10, 25]: 16 to 32 µg/mL; MIC [12, 26]: 32 µg/mL (≈ 21.3 µM); MIC [13, 27]: >64 µg/mL; MIC [14, 28]: 8 µg/mL (≈ 5.32 µM); MIC [15, 29]: 16 to 32 µg/mL; MIC [16, 30]: 4 µg/mL (≈ 2.66 µM)
3 | CCC(C)CCC(=O)N[C@H](CC(N)=O)C(=O)N[C@H](Cc1ccc(O)cc1)C(=O)N[C@H](Cc1c[nH]c2ccccc12)C(=O)N[C@H](CCCN)C(=O)N[C@@H](CCCN)C(=O)NCC(=O)N[C@H](CCCN)C(=O)N[C@@H](Cc1c[nH]c2ccccc12)C(=O)N[C@@H]1C(=O)N[C@@H]([C@@H](C)CC)C(=O)NCC(=O)N[C@@H](CO)C(=O)N[C@@H]1C (stereo partly shown) [MeDap9-Brev (7)] | 4 (≈ 2.63 µM) | 16 (≈ 10.5 µM) | 16 (≈ 10.5 µM) | – | 2 to 4 | 8 (≈ 5.27 µM) | 16 (≈ 10.5 µM) | 8 to 16 | 8 (≈ 5.27 µM) | 8 (≈ 5.27 µM) | – | 8 (≈ 5.27 µM) | >64 | 4 to 8 | 4 (≈ 2.63 µM) | 8 to 16 | – | – | – | 8 (≈ 5.27 µM) | –
4 | CC[C@H](C)[C@@H]1NC(=O)[C@@H](NC(=O)[C@H](Cc2c[nH]c3ccccc23)NC(=O)[C@@H](CCCN)NC(=O)CNC(=O)[C@H](CCCN)NC(=O)[C@@H](CCCN)NC(=O)[C@@H](Cc2c[nH]c3ccccc23)NC(=O)[C@@H](Cc2ccc(O)cc2)NC(=O)[C@@H](CO)NC(=O)CCCCCC(C)C)[C@@H](C)NC(=O)CNC(=O)CNC(=O)[C@H](CC(N)=O)NC1=O [MeDap9-Lat (8), MeDap9-laterocidine] | 1 (≈ 0.623 µM) | 2 (≈ 1.25 µM) | 1 (≈ 0.623 µM) | 0.5 (≈ 0.312 µM) | 0.5 (≈ 0.312 µM) | 1 (≈ 0.623 µM) | 4 (≈ 2.49 µM) | 2 (≈ 1.25 µM) | 2 (≈ 1.25 µM) | 1 to 2 | 4 (≈ 2.49 µM) | 1 to 2 | 32 (≈ 20 µM) | 0.5 (≈ 0.312 µM) | 2 (≈ 1.25 µM) | 2 (≈ 1.25 µM) | – | – | – | 0.5 (≈ 0.312 µM) | –
5 | CC[C@H](C)[C@@H]1NC(=O)[C@@H](NC(=O)[C@H](Cc2c[nH]c3ccccc23)NC(=O)[C@@H](CCCN)NC(=O)CNC(=O)[C@H](CCCN)NC(=O)[C@@H](CCCN)NC(=O)[C@@H](Cc2c[nH]c3ccccc23)NC(=O)[C@@H](Cc2ccc(O)cc2)NC(=O)[C@@H](CO)NC(=O)CCCCCC(C)C)COC(=O)CNC(=O)CNC(=O)[C@H](CC(N)=O)NC1=O [Ser9-Lat (4), Ser9-Laterocidine] ({Octanoyl(7-Me)}-[dS][dY][dW][dOrn][Orn]G[dOrn]WSINGG; ester 9-C) | 1 (≈ 0.629 µM) | 2 (≈ 1.26 µM) | 0.5 (≈ 0.314 µM) | – | 0.5 to 1 | – | 4 (≈ 2.51 µM) | 2 (≈ 1.26 µM) | 1 to 2 | 1 to 2 | – | 1 to 2 | >64 | 0.5 (≈ 0.314 µM) | 2 (≈ 1.26 µM) | 4 (≈ 2.51 µM) | – | – | – | – | –
6 | colistin [reference compound] | – | – | – | 4 | – | – | – | – | – | – | <0.25 | – | – | – | – | – | <0.25 | <0.25 | 0.25 to 0.5 | 2 to 4 | MIC [5, 21]: <0.25 µg/mL; MIC [7, 22]: <0.25 µg/mL; MIC [8, 23]: 0.5 to 1 µg/mL; MIC [9, 24]: 0.25 to 0.5 µg/mL; MIC [10, 25]: <0.25 µg/mL; MIC [12, 26]: 0.25 µg/mL; MIC [13, 27]: >64 µg/mL; MIC [14, 28]: <0.25 µg/mL; MIC [15, 29]: 0.25 to 0.5 µg/mL; MIC [16, 30]: <0.25 µg/mL
